Assay results: patent publication US20250282784A1, “CYTOCHROME BD OXIDASE INHIBITORS AND USES THEREOF” (UNIVERSITY OF NOTRE DAME DU LAC, priority 2022, published 2025)

Assays:
[1] = system: M. abscessus ATCC 19977T wild-type (WT); test: ATP levels in M. abscessus wild-type, 2-fold dose-response; format: cell-based, Mycobacterium abscessus; conditions: Mycobacteroides abscessus, read-out: ATP IC50 WT
Protocol: (§1) The compounds described and provided herein were evaluated for their potential to inhibit Cytochrome BD oxidase in Mycobacterium abscessus. M. abscessus ATCC 19977T wild-type (WT) and deficient for the expression of the cyt-bcc:aa3 (ΔqcrCAB) were treated with a 2-fold dose-response (starting from 40 μM) of the drugs. ATP levels were measured after 6 to 15 hours of incubation using a commercial kit.
(§2) M. abscessus ATCC 19977T wild-type (WT) and deficient for the expression of the cyt-bcc:aa3 (ΔqcrCAB) were treated with a 2-fold dose-response (starting from 40 μM) of the drugs. ATP levels were measured after 6 to 15 hours of incubation using a commercial kit.

[2] = system: M. abscessus ATCC 19977T deficient for the expression of the cyt-bcc:aa3 (ΔqcrCAB); test: ATP levels in M. abscessus deficient for cyt-bcc:aa3 (ΔqcrCAB), 2-fold dose-response; format: cell-based, Mycobacterium abscessus; conditions: Mycobacteroides abscessus, read-out: ATP IC50 ΔgcrCAB
Protocol: as §1, §2

[3] = system: M. abscessus; test: Killing of M. abscessus by clofazimine with or without Compound 12 (FIG. 1)

Compound | IC50 [1] [µM] | IC50 [2] [µM] | Synergy with clofazimine to kill M. abscessus ([3]; combination of Compound 12 with clofazimine, FIG. 1) | Type of activity of clofazimine against M. abscessus, tested alone ([3]; clofazimine alone) | Type of activity of clofazimine against M. abscessus in the presence of Compound 12 ([3]; in the presence of Compound 12)
Cc1cc2nc(NCC3CC3)c3ccccc3n2n1 [Compound 22, N-(cyclopropylmethyl)-2-methylpyrazolo[1,5-a] quinazolin-5-amine] | > 40 | 19.6 |  |  | 
Cc1cc2nc(Nc3ccc(Oc4ccc(C(F)(F)F)cc4)cc3)c3ccccc3n2n1 [Compound 14, 2-methyl-N-(4-(4-(trifluoromethyl)phenoxy)phenyl)pyrazolo[1,5-a] quinazolin-5-amine] | > 40 | > 40 |  |  | 
Cc1cc2nc(NCC3CCCCC3)c3ccccc3n2n1 [Compound 21, N-(cyclohexylmethyl)-2-methylpyrazolo[1,5-a] quinazolin-5-amine] | > 40 | 12.1 |  |  | 
Cc1cc2nc(NC3CCC3)c3ccccc3n2n1 [Compound 18, N-cyclobutyl-2-methylpyrazolo[1,5-a] quinazolin-5-amine] | > 40 | 9.7 |  |  | 
Cc1cc2nc(NC3CCC(C)CC3)c3ccccc3n2n1 (centres unmarked) [Compound 24, 2-methyl-N-(4-methylcyclohexyl)pyrazolo [1,5-a]quinazolin-5-amine] | > 40 | 9.2 |  |  | 
Cc1cc2nc(NC3CCC(C(C)(C)C)CC3)c3ccccc3n2n1 (centres unmarked) [Compound 26, N-(4-(tert-butyl)cyclohexyl)-2-methylpyrazolo[1,5-a] quinazolin-5-amine] | > 40 | 4.4 |  |  | 
Cc1cc2nc(NC3CCCCCC3)c3ccccc3n2n1 [Compound 12, N-cycloheptyl-2-methylpyrazolo[1,5-a] quinazolin-5-amine] | > 40 | 17.4 | synergizes with clofazimine to kill M. abscessus |  | 
Cc1cc2nc(N[C@@H]3C[C@H]3c3ccc(F)c(F)c3)c3ccccc3n2n1 [Compound 19A, N-((1R,2S)-2-(3,4-difluorophenyl)cyclopropyl)-2-methylpyrazolo[1,5-a] quinazolin-5-amine] | > 40 | 18.7 |  |  | 
Cc1cc2nc(NC34CC5CC(CC(C5)C3)C4)c3ccccc3n2n1 [Compound 4, N-((3s,5s,7s)-adamantan-1-yl)-2-methylpyrazolo[1,5-a] quinazolin-5-amine] | > 40 | 9.73 |  |  | 
Cc1cc2nc(NC3CCCCC3)c3ccccc3n2n1 [Compound 5, N-cyclohexyl-2-methylpyrazolo[1,5-a] quinazolin-5-amine] | > 40 | 6.89 |  |  | 
Cc1cc2nc(NC3CCC(F)(F)CC3)c3ccccc3n2n1 [Compound 3, N-(4,4-difluorocyclohexyl)-2-methylpyrazolo[1,5-a] quinazolin-5-amine] | > 40 | 20 |  |  | 
CC(C)/N=c1\cc2n(-c3ccc(Cl)cc3)c3ccccc3nc-2cc1Nc1ccc(Cl)cc1 [clofazimine, reference compound] |  |  |  | bacteriostatic | bactericidal
Cc1cc2nc(NC3CCCCCCC3)c3ccccc3n2n1 [Compound 9, N-cyclooctyl-2-methylpyrazolo[1,5-a] quinazolin-5-amine] | > 40 | 25.9 |  |  | 
Cc1cc2nc(N[C@H]3CCC[C@@H](c4ccc(C(F)(F)F)cc4)C3)c3ccccc3n2n1 [Compound 15A, 2-methyl-N-((1S,3R)-3-(4-(trifluoromethyl)phenyl)cyclohexyl)pyrazolo[1,5-a] quinazolin-5-amine] | > 40 | 6.6 |  |  | 
FC(F)(F)c1ccc([C@@H]2CCC[C@H](Nc3nc4ccnn4c4ccccc34)C2)cc1 [Compound 16A, N-((1S,3R)-3-(4-(trifluoromethyl)phenyl)cyclohexyl)pyrazolo[1,5-a] quinazolin-5-amine] | > 40 | 32.8 |  |  | 
Cc1cc2nc(NC3CCCC3)c3ccccc3n2n1 [Compound 8, N-cyclopentyl-2-methylpyrazolo[1,5-a] quinazolin-5-amine] | > 40 | 15.3 |  |  | 
Cc1cc2nc(NC3CCC(C(F)(F)F)CC3)c3ccccc3n2n1 (centres unmarked) [Compound 23, 2-methyl-N-(4-(trifluoromethyl)cyclohexyl) pyrazolo[1,5-a] quinazolin-5-amine] | > 40 | 9 |  |  | 
Cc1cc2nc(Cl)c3ccccc3n2n1 [Compound 7, S-chloro-2-methylpyrazolo[1,5-a] quinazoline] | > 40 | > 40 |  |  | 
Cc1cc2nc(NC3CC(C)(C)CC(C)(C)C3)c3ccccc3n2n1 [Compound 2, 2-methyl-N-(3,3,5,5-tetramethylcyclohexyl) pyrazolo[1,5-a] quinazolin-5-amine] | > 40 | > 40 |  |  | 
Cc1cc2nc(NCCc3ccc(C(F)(F)F)cc3)c3ccccc3n2n1 [Compound 1, 2-methyl-N-(4-(trifluoromethyl)phenethyl) pyrazolo[1,5-a]quinazolin-5-amine] | > 40 | 12.1 |  |  | 
Cc1cc2nc(NC3CC4(CCC4)C3)c3ccccc3n2n1 [Compound 17, 2-methyl-N-(spiro[3.3]heptan-2-yl)pyrazolo[1,5-a] quinazolin-5-amine] | > 40 | 3.2 |  |  | 
Cc1cc2nc(NCc3ccc(N4CCN(c5ccc(F)cc5)CC4)cc3)c3ccccc3n2n1 [Compound 6, N-(4-(4-(4-fluorophenyl)piperazin-1-yl)benzyl)-2-methylpyrazolo[1,5-a] quinazolin-5-amine] | > 40 | > 40 |  |  | 
Cc1cc2nc(NC3CCC(C(C)C)CC3)c3ccccc3n2n1 (centres unmarked) [Compound 25] | > 40 | 2.6 |  |  | 
